Results as given in patent US10590140B2, “Tetrahydropyrimidodiazepine and dihydropyridodiazepine compounds for treating pain and pain related conditions” (ESTEVE PHARMACEUTICALS, S.A., priority 2016, dated 2020).
pKi: −log10 of the molar value.

target: human α2δ-1 subunit of Cav2.2 calcium channel (Homo sapiens (Human), UniProt P54289); experiment: Binding assay to human α2δ-1 subunit of Cav2.2 calcium channel ([3H]-Gabapentin); conditions: not given
Method: Binding Assay to Human α2δ-1 Subunit of Cav2.2 Calcium Channel.
NSB (non specific binding) was measured by adding 10 μM pregabalin. After 60 min incubation at 27° C., binding reaction was terminated by filtering through Multiscreen GF/C (Millipore) presoaked in 0.5% polyethyleneimine in Vacuum Manifold Station, followed by 3 washes with ice-cold filtration buffer containing 50 mM Tris-HCl, pH 7.4.
Filter plates were dried at 60° C. for 1 hour and 30 μl of scintillation cocktail were added to each well before radioactivity reading.

human α2δ-1 subunit of Cav2.2 calcium channel, sequence (P54289 25-1103): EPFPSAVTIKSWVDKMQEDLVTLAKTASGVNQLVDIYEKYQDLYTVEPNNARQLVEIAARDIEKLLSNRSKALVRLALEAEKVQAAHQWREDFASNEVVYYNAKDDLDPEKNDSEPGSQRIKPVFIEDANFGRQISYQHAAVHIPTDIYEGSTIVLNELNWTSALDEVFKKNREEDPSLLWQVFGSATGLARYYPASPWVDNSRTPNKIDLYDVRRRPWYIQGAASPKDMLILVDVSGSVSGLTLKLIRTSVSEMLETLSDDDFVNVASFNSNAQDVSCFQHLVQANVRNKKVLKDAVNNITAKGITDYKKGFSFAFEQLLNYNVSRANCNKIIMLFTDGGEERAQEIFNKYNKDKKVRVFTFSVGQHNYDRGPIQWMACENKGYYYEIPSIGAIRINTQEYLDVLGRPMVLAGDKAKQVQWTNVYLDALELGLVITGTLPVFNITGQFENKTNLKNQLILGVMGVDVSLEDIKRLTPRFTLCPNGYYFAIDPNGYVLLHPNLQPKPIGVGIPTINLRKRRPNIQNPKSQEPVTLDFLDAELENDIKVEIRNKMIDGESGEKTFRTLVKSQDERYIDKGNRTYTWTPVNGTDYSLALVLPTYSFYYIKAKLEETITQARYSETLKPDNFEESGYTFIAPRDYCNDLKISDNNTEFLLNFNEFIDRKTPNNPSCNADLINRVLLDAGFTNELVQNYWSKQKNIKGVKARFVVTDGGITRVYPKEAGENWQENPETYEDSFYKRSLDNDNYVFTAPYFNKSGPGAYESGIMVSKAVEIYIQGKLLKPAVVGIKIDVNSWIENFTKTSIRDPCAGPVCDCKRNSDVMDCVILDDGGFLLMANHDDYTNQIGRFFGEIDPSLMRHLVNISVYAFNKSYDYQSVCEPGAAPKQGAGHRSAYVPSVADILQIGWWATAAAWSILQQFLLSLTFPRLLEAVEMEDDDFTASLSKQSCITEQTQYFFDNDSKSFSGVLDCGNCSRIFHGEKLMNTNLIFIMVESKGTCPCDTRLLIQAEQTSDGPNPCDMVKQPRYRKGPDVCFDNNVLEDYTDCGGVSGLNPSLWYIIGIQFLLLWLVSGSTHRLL

CCNc1ncc2c(n1)N(C)CCN(c1cccc(-n3cc(CN4CCC(c5cccc(O)c5)(N(C)C)CC4)nn3)c1)C2=O [Example 293, 6-(3-(4-((4-(dimethylamino)-4-(3-hydroxyphenyl)piperidin-1-yl)methyl)-1H-1,2,3-triazol-1-yl)phenyl)-2-(ethylamino)-9-methyl-6,7,8,9-tetrahydro-5H-pyrimido[4,5-e] [1,4]diazepin-5-one] showed a pKi of 6.30 to 7.00.

same assay, conditions: binding to α2δ-1, [3H]-Gabapentin; read-out: Ki (nM) α2δ-1

CCNc1ncc2c(n1)N(C)CCN(c1cccc(OCCCN(C)CCc3ccccc3)c1)C2=O [Example 258, 2-(ethylamino)-9-methyl-6-(3-(3-(methyl(phenethyl)amino)propoxy)phenyl)-6,7,8,9-tetrahydro-5H-pyrimido[4,5-e][1,4]diazepin-5-one] and CCNc1ncc2c(n1)N(C)CCN(c1cccc(-n3cc(CCN(C)Cc4ccccc4)nn3)c1)C2=O [Example 247, 6-(3-(4-(2-(benzyl(methyl)amino)ethyl)-1H-1,2,3-triazol-1-yl)phenyl)-2-(ethylamino)-9-methyl-6,7,8,9-tetrahydro-5H-pyrimido[4,5-e][1,4]diazepin-5-one] fall in the same range of Ki: 500 to 3000 nM for the first, 500 to 3000 nM for the second.

CCNc1ncc2c(n1)N(C)CCN(c1cccc(-n3cc(CN)nn3)c1)C2=O [Example 181, 6-(3-(4-(aminomethyl)-1H-1,2,3-triazol-1-yl)phenyl)-2-(ethylamino)-9-methyl-6,7,8,9-tetrahydro-5H-pyrimido[4,5-e][1,4]diazepin-5-one] and CCNc1ncc2c(n1)N(C)CCN(c1cccc(-n3cnc(CNC)c3)c1)C2=O [Example 186, 2-(ethylamino)-9-methyl-6-(3-(4-((methylamino)methyl)-1H-imidazol-1-yl)phenyl)-6,7,8,9-tetrahydro-5H-pyrimido[4,5-e][1,4]diazepin-5-one] fall in the same range of Ki: 100 to 500 nM for the first, 100 to 500 nM for the second.

CSc1ncc2c(n1)N(C)CCN(c1cccc(OC(CCN(C)C(=O)OC(C)(C)C)c3cccs3)c1)C2=O (stereo not drawn) [Example 12, tert-butyl methyl(3-(3-(9-methyl-2-(methylthio)-5-oxo-5,7,8,9-tetrahydro-6H-pyrimido[4,5-e][1,4]diazepin-6-yl)phenoxy)-3-(thiophen-2-yl)propyl) carbamate] and CSc1ncc2c(n1)N(C)CCN(c1cccc(OCCCN(C)C(=O)OC(C)(C)C)c1)C2=O [Example 20, tert-butyl methyl(3-(3-(9-methyl-2-(methylthio)-5-oxo-5,7,8,9-tetrahydro-6H-pyrimido[4,5-e][1,4]diazepin-6-yl)phenoxy)propyl) carbamate] cannot be ordered by Ki: > 3000 nM for the first, > 3000 nM for the second.

CCNc1ncc2c(n1)N(C)CCN(c1cccc(OC3CCN(C(=O)OC(C)(C)C)C3)c1)C2=O (stereo not drawn) [Example 95, tert-butyl 3-(3-(2-(ethylamino)-9-methyl-5-oxo-5,7,8,9-tetrahydro-6H-pyrimido[4,5-e][1,4]diazepin-6-yl)phenoxy)pyrrolidine-1-carboxylate] and CCNc1ncc2c(n1)N(C)CCN(c1cccc(O[Si](C)(C)C(C)(C)C)c1)C2=O [Example 111, 6-(3-((tert-butyldimethylsilyl)oxy)phenyl)-2-(ethylamino)-9-methyl-6,7,8,9-tetrahydro-5H-pyrimido[4,5-e][1,4]diazepin-5-one] cannot be ordered by Ki: > 3000 nM for the first, > 3000 nM for the second.

Cc1cc2c(cn1)C(=O)N(Cc1ccc(O[C@@H](CCN(C)C(=O)OCC[Si](C)(C)C)c3cccs3)cc1)CCN2C [Example 301, 2-(trimethylsilyl)ethyl (S)-(3-(4-((1,8-dimethyl-5-oxo-1,2,3,5-tetrahydro-4H-pyrido[4,3-e][1,4]diazepin-4-yl)methyl)phenoxy)-3-(thiophen-2-yl)propyl)(methyl) carbamate] and CN(CC[C@H](Oc1cccc(N2CCN(C)c3cc(Cl)ncc3C2=O)c1)c1cccs1)C(=O)OCC[Si](C)(C)C [Example 298, 2-(trimethylsilyl)ethyl (S)-(3-(3-(8-chloro-1-methyl-5-oxo-1,2,3,5-tetrahydro-4H-pyrido[4,3-e][1,4]diazepin-4-yl)phenoxy)-3-(thiophen-2-yl)propyl)(methyl) carbamate] cannot be ordered by Ki: > 3000 nM for the first, > 3000 nM for the second.

CN(CC[C@@H](OCc1cccc(N2CCN(C)c3nc(N)ncc3C2=O)c1)c1ccccc1)C(=O)OC(C)(C)C [Example 130, tert-butyl (R)-(3-((3-(2-amino-9-methyl-5-oxo-5,7,8,9-tetrahydro-6H-pyrimido[4,5-e][1,4]diazepin-6-yl)benzyl)oxy)-3-phenylpropyl)(methyl) carbamate] and CCNc1ncc2c(n1)N(C)CCN(c1cccc(CO[C@@H](CCN(C)C(=O)OC(C)(C)C)c3ccccc3)c1)C2=O [Example 79, tert-butyl (S)-(3-((3-(2-(ethylamino)-9-methyl-5-oxo-5,7,8,9-tetrahydro-6H-pyrimido[4,5-e][1,4]diazepin-6-yl)benzyl)oxy)-3-phenylpropyl)(methyl) carbamate] cannot be ordered by Ki: > 3000 nM for the first, > 3000 nM for the second.

CCNc1ncc2c(n1)N(C)CCN(Cc1ccc(CN(C)C(=O)OC(C)(C)C)cc1)C2=O [Example 137, tert-butyl (4-((2-(ethylamino)-9-methyl-5-oxo-5,7,8,9-tetrahydro-6H-pyrimido[4,5-e][1,4]diazepin-6-yl)methyl)benzyl) (methyl)carbamate] and CSc1ncc2c(n1)N(C)CCN(Cc1ccc(CN(C)C(=O)OC(C)(C)C)cc1)C2=O [Example 64, tert-butyl methyl(4-((9-methyl-2-(methylthio)-5-oxo-5,7,8,9-tetrahydro-6H-pyrimido[4,5-e][1,4]diazepin-6-yl)methyl)benzyl) carbamate] cannot be ordered by Ki: > 3000 nM for the first, > 3000 nM for the second.

First: CCNc1ncc2c(n1)N(C)CCN(c1cccc(OCCN3CCOCC3)c1)C2=O [Example 440, 2-(ethylamino)-9-methyl-6-(3-(2-morpholinoethoxy)phenyl)-6,7,8,9-tetrahydro-5H-pyrimido[4,5-e][1,4]diazepin-5-one]
Second: CCNc1ncc2c(n1)N(C)CCN(c1cccc(CCO)c1)C2=O [Example 113, 2-(ethylamino)-6-(3-(2-hydroxyethyl)phenyl)-9-methyl-6,7,8,9-tetrahydro-5H-pyrimido[4,5-e][1,4]diazepin-5-one]
The Ki of the first is lower: 500 to 3000 nM for the first, > 3000 nM for the second.

Cc1ncc2c(n1)N(C)CCN(c1cccc(OC(CCN(C)C(=O)OCC[Si](C)(C)C)c3cccs3)c1)C2=O (stereo not drawn) [Example 144, 2-(trimethylsilyl)ethyl (3-(3-(2,9-dimethyl-5-oxo-5,7,8,9-tetrahydro-6H-pyrimido[4,5-e][1,4]diazepin-6-yl)phenoxy)-3-(thiophen-2-yl)propyl)(methyl) carbamate] and CN(CCC(Oc1cccc(N2CCN(C)c3ncncc3C2=O)c1)c1cccs1)C(=O)OCC[Si](C)(C)C (stereo not drawn) [Example 147, 2-(trimethylsilyl)ethyl methyl(3-(3-(9-methyl-5-oxo-5,7,8,9-tetrahydro-6H-pyrimido[4,5-e][1,4]diazepin-6-yl)phenoxy)-3-(thiophen-2-yl)propyl)carbamate] cannot be ordered by Ki: > 3000 nM for the first, > 3000 nM for the second.

CN(CCC(Oc1cccc(N2CCN(C)c3cc(N(C)C)ncc3C2=O)c1)c1cccs1)C(=O)OCC[Si](C)(C)C (stereo not drawn) [Example 59, 2-(trimethyl-silyl)ethyl (3-(3-(8-(dimethylamino)-1-methyl-5-oxo-1,2,3,5-tetrahydro-4H-pyrido[4,3-e] [1,4]diazepin-4-yl)phenoxy)-3-(thiophen-2-yl)propyl)(methyl) carbamate] and CCNc1ncc2c(n1)N(C)CCN(c1cccc(CO[C@H](CCN(C)C(=O)OC(C)(C)C)c3cccs3)c1)C2=O [Example 84, tert-butyl (R)-(3-((3-(2-(ethylamino)-9-methyl-5-oxo-5,7,8,9-tetrahydro-6H-pyrimido[4,5-e][1,4]diazepin-6-yl)benzyl)oxy)-3-(thiophen-2-yl)propyl)(methyl) carbamate] cannot be ordered by Ki: > 3000 nM for the first, > 3000 nM for the second.

CCNc1ncc2c(n1)N(C)CCN(c1cccc(COC(C)CCNC)c1)C2=O (stereo not drawn) [Example 191, 2-(ethylamino)-9-methyl-6-(3-(((4-(methylamino)butan-2-yl)oxy)methyl)phenyl)-6,7,8,9-tetrahydro-5H-pyrimido[4,5-e][1,4]diazepin-5-one] and CCNc1ncc2c(n1)N(C)CCN(c1cccc(Cn3cc(CNC)nn3)c1)C2=O [Example 184, 2-(ethylamino)-9-methyl-6-(3-((4-((methylamino)methyl)-1H-1,2,3-triazol-1-yl)methyl)phenyl)-6,7,8,9-tetrahydro-5H-pyrimido[4,5-e][1,4]diazepin-5-one] fall in the same range of Ki: 500 to 3000 nM for the first, 500 to 3000 nM for the second.

CN(CCC(OCc1cccc(N2CCN(C)c3ncncc3C2=O)c1)c1cccs1)C(=O)OC(C)(C)C (stereo not drawn) [Example 146, tert-butyl methyl(3-((3-(9-methyl-5-oxo-5,7,8,9-tetrahydro-6H-pyrimido[4,5-e][1,4]diazepin-6-yl)benzyl)oxy)-3-(thiophen-2-yl)propyl)carbamate] and CSc1ncc2c(n1)N(C)CCN(c1cccc(COC(CCN(C)C(=O)OC(C)(C)C)C(C)C)c1)C2=O (stereo not drawn) [Example 49, tert-butyl methyl (4-methyl-3-((3-(9-methyl-2-(methylthio)-5-oxo-5,7,8,9-tetrahydro-6H-pyrimido[4,5-e][1,4]diazepin-6-yl)benzyl)oxy)pentyl) carbamate] cannot be ordered by Ki: > 3000 nM for the first, > 3000 nM for the second.

CSc1ncc2c(n1)N(C)CCN(c1cccc(-n3cc(CN(C)C(=O)OC(C)(C)C)nn3)c1)C2=O [Example 39, tert-butyl methyl((1-(3-(9-methyl-2-(methylthio)-5-oxo-5,7,8,9-tetrahydro-6H-pyrimido[4,5-e][1,4]diazepin-6-yl)phenyl)-1H-1,2,3-triazol-4-yl)methyl) carbamate] and CSc1ncc2c(n1)N(C)CCN(c1ccccc1OC(CCN(C)C(=O)OC(C)(C)C)c1ccccc1)C2=O (stereo not drawn) [Example 48, tert-butyl methyl(3-(2-(9-methyl-2-(methylthio)-5-oxo-5,7,8,9-tetrahydro-6H-pyrimido [4,5-e][1,4]diazepin-6-yl)phenoxy)-3-phenylpropyl) carbamate] cannot be ordered by Ki: > 3000 nM for the first, > 3000 nM for the second.
